The results in this text go back to PubChem BioAssay (NCI).

Values joined by “and” are separate entries in the source; they are usually repeats but may differ in a detail not shown here. Equal values may be shown once.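 These data come from cells grown in 96-well plates and exposed to compound for 48 hours at five concentrations. GI50 is the concentration that inhibits growth by half. TGI: concentration producing complete growth inhibition.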

In the first assay the test system is RXF 393 renal. Description: DTP human tumour cell line panel, 48 h.
What is called TGI is the concentration giving total growth inhibition. Lower therefore signals more potent growth arrest. As to `Cc1ccc2c(c1C)CC1(Cc3c(ccc4c3CCC4)C1=O)C2=O` (stereo not drawn), the TGI was more than 100 µM.
In turn, `OCC1CCCC(n2cnc3c(=S)nc[nH]c32)O1` (stereo not drawn) registered a TGI of more than 100 µM.
Same read-out and setting: the value for `COc1cc2oc(-c3ccc(O)cc3)c(OC3OC(C)C(O)C(O)C3O)c(=O)c2c(O)c1OC` (stereo not drawn) was more than 100 µM; that for `CCCCc1c(O)nc(Nc2nc3ccccc3[nH]2)[nH]c1=O` was more than 100 µM.
On the same count and under the same terms, the value for `CC1(C)CC2(C)CC1CC2O` (stereo not drawn) was more than 100 µM; that for `Clc1cc(N/N=C(/c2ccccc2)c2ncccn2)ncn1` was 41.4 µM.
Same read-out and setting: the value for `Cc1c(S(=O)(=O)c2ccccc2)c(N)n(Cc2ccccc2)c1C` was more than 100 µM; that for `CCC(=O)C(c1ccccc1)c1ccccn1` (stereo not drawn) was more than 100 µM.
Take `CCCN=C1CC(C)Nc2ccccc2N1` (stereo not drawn): the TGI was more than 100 µM.
Compound `Cc1ccc(-c2cc(N)n(-c3nc4c([nH]3)c(=O)n(C)c(=O)n4C)n2)cc1` showed a TGI of 81.1 µM.
The same measure, in the same setting: in the case of `C=CCN(CC=C)Cn1c(=S)sc2ccccc21` it was more than 100 µM.
The same measure, in the same setting: the value for `O=c1[nH]c2nc3ccccc3c(=O)n2/c1=C/c1ccc(O)cc1` was more than 100 µM; that for `COc1ccc(-c2c(C#N)c(S)n(C3OC(COC(C)=O)C(OC(C)=O)C(OC(C)=O)C3OC(C)=O)c(=O)c2C#N)cc1` (stereo not drawn) was 71.7 µM and 73 µM; that for `C[C@]12OC[C@H](c3ccccc3)N1C(=O)C1[C@H]2CC12SCCS2` (stereo partly drawn) was more than 100 µM.
The compound `Cc1cccc(N2C(=O)C3ON(C(C(N)=O)c4ccccc4)C(c4c5ccccc5c(Cl)c5ccccc45)C3C2=O)c1C` (stereo not drawn) registered a TGI of 13.5 µM.
On the same count and under the same terms, in the case of `Cc1ccccc1C1OC1C(=O)c1ccccc1N` (stereo not drawn) it was more than 100 µM.
Still for that read-out and setting: the value for `COc1cc(COC(=O)N[C@H](C(=O)O)C(C)(C)C)c([N+](=O)[O-])cc1OC` was more than 100 µM.

A further assay concerns OVCAR-8 ovarian. Description: DTP human tumour cell line panel, 48 h.
Take `COc1ccc2c(c1)c1c(n2CCN2CCOCC2)-c2ccccc2CC1`: the TGI is more than 100 µM.
On the same count and under the same terms, in the case of `O=C1CC(O)c2c1csc2Br` (stereo not drawn) it was 62.4 µM; in that of `CCCCCCCCCC[C@@H](O)[C@H]1CC[C@H]([C@H]2CC[C@H]([C@H](O)CCCCCCCCCC[C@@H]3CC(CC(C)=O)C(=O)O3)O2)O1` (stereo partly drawn), more than 50 µM.
Still for that read-out and setting: in the case of `CCOC(=O)c1cc(C2(O)CCN(Cc3ccccc3)C2=O)c(-c2cc(C)no2)[nH]1` (stereo not drawn) it was more than 100 µM; in that of `Cc1cn(C2C=CC(COP(=O)(OCC3=CC(=O)c4ccccc4C3=O)N(C)CCCCCl)O2)c(=O)[nH]c1=O` (stereo not drawn), 26.6 µM.
The same measure, in the same setting: in the case of `Clc1nc(Cl)nc(NC23CC4CC(CC(C4)C2)C3)n1` it was 34.9 µM.
`CCOC(=O)c1cc2c([N+](=O)[O-])c(NC(C)=O)ccc2s1` had a TGI of more than 100 µM.
Still for that read-out and setting: the value for `CCOC(=O)c1cc(=C2\CCN(CC(C)CC)C2=S)/c(=C(/O)CC)[nH]1` (stereo not drawn) was 56.6 µM; that for `Cc1ccc2c(c1C)CC1(Cc3c(ccc4c3CCC4)C1=O)C2=O` (stereo not drawn) was more than 100 µM.
The same measure, in the same setting: the value for `OCC1CCCC(n2cnc3c(=S)nc[nH]c32)O1` (stereo not drawn) was more than 100 µM.
Take `COc1cc2oc(-c3ccc(O)cc3)c(OC3OC(C)C(O)C(O)C3O)c(=O)c2c(O)c1OC` (stereo not drawn): the TGI was more than 100 µM.
Still for that read-out and setting: the value for `CCCCc1c(O)nc(Nc2nc3ccccc3[nH]2)[nH]c1=O` was more than 100 µM; that for `CC1(C)CC2(C)CC1CC2O` (stereo not drawn) was more than 100 µM; that for `Clc1cc(N/N=C(/c2ccccc2)c2ncccn2)ncn1` was 34.6 µM.
On the same count and under the same terms, in the case of `Cc1c(S(=O)(=O)c2ccccc2)c(N)n(Cc2ccccc2)c1C` it was more than 100 µM; in that of `CCC(=O)C(c1ccccc1)c1ccccn1` (stereo not drawn), more than 100 µM.
On the same count and under the same terms, in the case of `CCCN=C1CC(C)Nc2ccccc2N1` (stereo not drawn) it was more than 100 µM.
As to `Cc1ccc(-c2cc(N)n(-c3nc4c([nH]3)c(=O)n(C)c(=O)n4C)n2)cc1`, the TGI was found to be 15.3 µM.
Regarding `C=CCN(CC=C)Cn1c(=S)sc2ccccc21`, the TGI is more than 100 µM.
Compound `O=c1[nH]c2nc3ccccc3c(=O)n2/c1=C/c1ccc(O)cc1` returned a TGI of 54.8 µM.
Same read-out and setting: in the case of `COc1ccc(-c2c(C#N)c(S)n(C3OC(COC(C)=O)C(OC(C)=O)C(OC(C)=O)C3OC(C)=O)c(=O)c2C#N)cc1` (stereo not drawn) it was more than 100 µM; in that of `C[C@]12OC[C@H](c3ccccc3)N1C(=O)C1[C@H]2CC12SCCS2` (stereo partly drawn), more than 100 µM.
The same measure, in the same setting: the value for `Cc1cccc(N2C(=O)C3ON(C(C(N)=O)c4ccccc4)C(c4c5ccccc5c(Cl)c5ccccc45)C3C2=O)c1C` (stereo not drawn) was 25.1 µM; that for `Cc1ccccc1C1OC1C(=O)c1ccccc1N` (stereo not drawn) was more than 100 µM.
Still for that read-out and setting: the value for `COc1cc(COC(=O)N[C@H](C(=O)O)C(C)(C)C)c([N+](=O)[O-])cc1OC` was more than 100 µM.

The next assay deals with HCT-15 colon. Description: DTP human tumour cell line panel, 48 h.
Take `COc1ccc2c(c1)c1c(n2CCN2CCOCC2)-c2ccccc2CC1`: the TGI was more than 100 µM.
Still for that read-out and setting: in the case of `O=C1CC(O)c2c1csc2Br` (stereo not drawn) it was 39 µM.
Broadly, the GI50 is the concentration that inhibits growth by half. Consider `CCCCCCCCCC[C@@H](O)[C@H]1CC[C@H]([C@H]2CC[C@H]([C@H](O)CCCCCCCCCC[C@@H]3CC(CC(C)=O)C(=O)O3)O2)O1` (stereo partly drawn), for which the GI50 was 7.21 µM and the TGI was more than 50 µM.
`CCOC(=O)c1cc(C2(O)CCN(Cc3ccccc3)C2=O)c(-c2cc(C)no2)[nH]1` (stereo not drawn): the TGI was more than 100 µM.
The same measure, in the same setting: the value for `Cc1cn(C2C=CC(COP(=O)(OCC3=CC(=O)c4ccccc4C3=O)N(C)CCCCCl)O2)c(=O)[nH]c1=O` (stereo not drawn) was 20.9 µM; that for `Clc1nc(Cl)nc(NC23CC4CC(CC(C4)C2)C3)n1` was 31.7 µM.
`CCOC(=O)c1cc2c([N+](=O)[O-])c(NC(C)=O)ccc2s1` yielded a TGI of more than 100 µM.
The same measure, in the same setting: the value for `CCOC(=O)c1cc(=C2\CCN(CC(C)CC)C2=S)/c(=C(/O)CC)[nH]1` (stereo not drawn) was 25.8 µM; that for `Cc1ccc2c(c1C)CC1(Cc3c(ccc4c3CCC4)C1=O)C2=O` (stereo not drawn) was more than 100 µM.
On the same count and under the same terms, the value for `OCC1CCCC(n2cnc3c(=S)nc[nH]c32)O1` (stereo not drawn) was more than 100 µM; that for `COc1cc2oc(-c3ccc(O)cc3)c(OC3OC(C)C(O)C(O)C3O)c(=O)c2c(O)c1OC` (stereo not drawn) was more than 100 µM.
In turn, `CCCCc1c(O)nc(Nc2nc3ccccc3[nH]2)[nH]c1=O` came in with a TGI of more than 100 µM.
The same measure, in the same setting: the value for `CC1(C)CC2(C)CC1CC2O` (stereo not drawn) was more than 100 µM; that for `Clc1cc(N/N=C(/c2ccccc2)c2ncccn2)ncn1` was more than 100 µM; that for `Cc1c(S(=O)(=O)c2ccccc2)c(N)n(Cc2ccccc2)c1C` was more than 100 µM.
Regarding `CCC(=O)C(c1ccccc1)c1ccccn1` (stereo not drawn), the TGI was more than 100 µM.
Same read-out and setting: in the case of `CCCN=C1CC(C)Nc2ccccc2N1` (stereo not drawn) it was more than 100 µM; in that of `Cc1ccc(-c2cc(N)n(-c3nc4c([nH]3)c(=O)n(C)c(=O)n4C)n2)cc1`, 18.6 µM.
The same measure, in the same setting: in the case of `C=CCN(CC=C)Cn1c(=S)sc2ccccc21` it was more than 100 µM.
Regarding `O=c1[nH]c2nc3ccccc3c(=O)n2/c1=C/c1ccc(O)cc1`, the TGI is more than 100 µM.
The compound `COc1ccc(-c2c(C#N)c(S)n(C3OC(COC(C)=O)C(OC(C)=O)C(OC(C)=O)C3OC(C)=O)c(=O)c2C#N)cc1` (stereo not drawn) showed a concentration for total growth inhibition (TGI) of more than 100 µM.
The same measure, in the same setting: the value for `C[C@]12OC[C@H](c3ccccc3)N1C(=O)C1[C@H]2CC12SCCS2` (stereo partly drawn) was more than 100 µM.
The same measure, in the same setting: in the case of `Cc1cccc(N2C(=O)C3ON(C(C(N)=O)c4ccccc4)C(c4c5ccccc5c(Cl)c5ccccc45)C3C2=O)c1C` (stereo not drawn) it was 22 µM.
On the same count and under the same terms, the value for `Cc1ccccc1C1OC1C(=O)c1ccccc1N` (stereo not drawn) was more than 100 µM; that for `COc1cc(COC(=O)N[C@H](C(=O)O)C(C)(C)C)c([N+](=O)[O-])cc1OC` was more than 100 µM.
